Laboratory results: US10392422B2, “Macrocyclic broad spectrum antibiotics” (priority 2014, dated 2019)
Values after ≈ are worked out from the molar mass of the structure shown. Like-named read-outs stand apart in the source and are kept apart here.

How the values were obtained:
Assay in all cases: MIC, broth micro-dilution technique (CLSI)
MRSA COL (NRS100) = type: cell-based, Staphylococcus aureus; details: for MIC: Staphylococcus aureus, 22 h, read-out: MIC (μg/mL) (COL)
Method: (§1) In vitro antimicrobial activity of each compound was determined by measuring minimal inhibitor concentrations (MICs) using the broth micro-dilution technique as approved by the Clinical and Laboratory Standards Institute (CLSI) (Methods for Dilution Antimicrobial Susceptibility Tests for Bacteria that Grow Aerobically; Approved Standard—Eighth Edition. CLSI document M07-A8. Wayne, Pa.: Clinical and Laboratory Standards; 2009). Antibacterial activity was measured against three strains of bacteria: a Methicillin Resistant Staphylococcus aureus strain USA 300 (NRS384); a MRSA COL (NRS100), another Methicillin Resistant Staphylococcus aureus strain; and a strain of Escherichia coli MC4100 harboring the IMP4213, which results in increased outer-membrane permeability (B Martin and Silhavy T. Imp/OstA is required for cell envelope biogenesis in Escherichia coli. (2002) Molecular Microbiology, 45(5), 1289-1302). Cells were inoculated onto plates of Trypyticase Soy Agar or Luria Agar respectively and grown at 35° C. for 20 hours. Inocula suspensions were prepared by scraping cells into 1 ml of testing media (cation adjusted Mueller Hinton Broth supplemented with 0.002% v/v Tween-80) and diluting to a final OD600 nm of 0.01.
(§2) Test compounds were prepared in DMSO at a concentration of 10 mg/ml. These compound stocks were diluted into testing media at a concentration of 64 μg/ml and serial 2-fold dilutions were made in the same media, in 96-well U bottom microtiter dishes, for a total of 10 compound concentrations (Table 1). In modified protocols (Table 2), compound stocks were diluted into testing media at a concentration of 4 μg/mL and serial 2-fold dilutions were made in the same media, in 96-well U bottom microtiter dishes, for a total of 10 compound concentrations. Inocula suspensions were added to the 2-fold serial dilutions of test compounds to a final density of OD OD600 nm of 0.0005 and incubated at 35° C. for 22 hours. […] The results from the protocol starting from a concentration of 64 µg/mL are listed in Table 1 and the results from the modified protocol are shown in Table 2.

[1] = test system: Escherichia coli MC4100 harboring the IMP4213; type: cell-based; details: 35° C., 22 hours; for MIC: Escherichia coli, 22 h, read-out: MIC (μg/mL) E. coli, Table 1 protocol: serial 2-fold dilutions starting from 64 μg/ml; for MIC (μg/mL) E. coli: Table 1 protocol: serial 2-fold dilutions starting from 64 μg/ml
Method: as §1, §2

[2] = test system: Methicillin Resistant Staphylococcus aureus strain USA 300 (NRS384); type: cell-based; details: for MIC: Staphylococcus aureus, 22 h, read-out: MIC (μg/mL) S. aureus
Method: as §1, §2

[3] = Table 1 protocol: serial 2-fold dilutions starting from 64 μg/ml, 35° C., 22 hours

Row | SMILES | MIC (MRSA COL (NRS100); [3]) [µg/mL] | MIC [1] [µg/mL] | MIC [2, 3] [µg/mL] | MIC (MRSA COL (NRS100)) [µg/mL] | MIC [2] [µg/mL] | MIC (μg/mL) (COL) (MRSA COL (NRS100); [3]) [µg/mL] | MIC (μg/mL) E. coli [1] [µg/mL] | MIC (μg/mL) S. aureus [2, 3] [µg/mL]
1 | C[C@H](NC(=O)[C@@H]1Cc2ccc(O)c(c2)-c2cc(ccc2O)[C@H](N(C)C(=O)[C@H](CCCCN)NC(=O)c2ccc(-c3ccc(Cl)cc3)cc2)C(=O)N[C@@H](C)C(=O)N1)C(=O)CCc1cc[nH]n1 [Compound 130] | 8 (≈ 8.84 µM) | > 64 | 16 (≈ 17.7 µM) | – | – | – | – | –
2 | C[C@H](NC(=O)[C@@H]1Cc2ccc(O)c(c2)-c2cc(ccc2O)[C@H](N(C)C(=O)[C@H](CCCCN)NC(=O)c2ccc(-c3ccc(Cl)cc3)cc2)C(=O)N[C@@H](C)C(=O)N1)C(=O)CCc1c[nH]cn1 [Compound 132] | 8 (≈ 8.84 µM) | > 64 | 32 (≈ 35.3 µM) | – | – | – | – | –
3 | C[C@H](NC(=O)[C@@H]1Cc2ccc(O)c(c2)-c2cc(ccc2O)[C@H](N(C)C(=O)[C@H](CCCCN)NC(=O)c2ccc(-c3ccc(Cl)cc3)cc2)C(=O)N[C@@H](C)C(=O)N1)B1O[C@@H]2C[C@@H]3C[C@@H](C3(C)C)[C@]2(C)O1 [Compound 133] | – | 2 (≈ 2.08 µM) | – | 1.5 (≈ 1.56 µM) | 2.5 (≈ 2.6 µM) | – | – | –
4 | C[C@@H]1NC(=O)[C@@H](N(C)C(=O)[C@H](CCCCN)NC(=O)c2ccc(-c3ccc(Cl)cc3)cc2)c2ccc(O)c(c2)-c2cc(ccc2O)C[C@@H](C(=O)N[C@@H](C)C(=O)c2nnn[nH]2)NC1=O [Compound 134] | 0.75 (≈ 0.853 µM) | 45 (≈ 51.2 µM) | 2.8 (≈ 3.18 µM) | – | – | – | – | –
5 | C[C@H](NC(=O)[C@@H]1Cc2ccc(O)c(c2)-c2cc(ccc2O)[C@H](N(C)C(=O)[C@H](CCCCN)NC(=O)c2ccc(-c3ccc(Cl)cc3)cc2)C(=O)N[C@@H](C)C(=O)N1)C(=O)N[C@H]1CCNC1=O [Compound 135] | 32 (≈ 35.2 µM) | 64 (≈ 70.4 µM) | > 64 | – | – | – | – | –
6 | C[C@@H]1NC(=O)[C@@H](N(C)C(=O)[C@H](CCCCN)NC(=O)c2ccc(-c3ccc(Cl)cc3)cc2)c2ccc(O)c(c2)-c2cc(ccc2O)C[C@@H](C(=O)N[C@@H](C)C(=O)N(C)[C@H]2CCNC2=O)NC1=O [Compound 136] | 2 (≈ 2.17 µM) | 16 (≈ 17.3 µM) | 8 (≈ 8.66 µM) | – | – | – | – | –
7 | C[C@H](NC(=O)[C@@H]1Cc2ccc(O)c(c2)-c2cc(ccc2O)[C@H](N(C)C(=O)[C@H](CCCCN)NC(=O)c2ccc(-c3ccc(Cl)cc3)cc2)C(=O)N[C@@H](C)C(=O)N1)C(=O)N[C@@H]1CCNC1=O [Compound 137] | 8 (≈ 8.8 µM) | 32 (≈ 35.2 µM) | 32 (≈ 35.2 µM) | – | – | – | – | –
8 | C[C@@H]1NC(=O)[C@@H](N(C)C(=O)[C@H](CCCCN)NC(=O)c2ccc(-c3ccc(Cl)cc3)cc2)c2ccc(O)c(c2)-c2cc(ccc2O)C[C@@H](C(=O)N[C@@H](C)C(=O)N(C)[C@@H]2CCNC2=O)NC1=O [Compound 138] | – | 64 (≈ 69.3 µM) | – | 17 (≈ 18.4 µM) | 32 (≈ 34.7 µM) | – | – | –
9 | COC(=O)C(=O)[C@H](C)NC(=O)[C@@H]1Cc2ccc(O)c(c2)-c2cc(ccc2O)[C@H](N(C)C(=O)[C@H](CCCCN)NC(=O)c2ccc(-c3ccc(Cl)cc3)cc2)C(=O)N[C@@H](C)C(=O)N1 [Compound 139] | – | 8 (≈ 9.2 µM) | – | 4 (≈ 4.6 µM) | 11 (≈ 12.7 µM) | – | – | –
10 | C[C@@H]1NC(=O)[C@@H](N(C)C(=O)[C@H](CCCCN)NC(=O)c2ccc(-c3ccc(Cl)cc3)cc2)c2ccc(O)c(c2)-c2cc(ccc2O)C[C@@H](C(=O)N[C@@H](C)C(=O)C(=O)O)NC1=O [Compound 140] | – | 8 (≈ 9.35 µM) | – | 8 (≈ 9.35 µM) | 23 (≈ 26.9 µM) | – | – | –
11 | C[C@@H]1NC(=O)[C@@H](N(C)C(=O)[C@H](CCCCN)NC(=O)c2ccc(-c3ccc(Cl)cc3)cc2)c2ccc(O)c(c2)-c2cc(ccc2O)C[C@@H](C(=O)N[C@@H](C)C(=O)C(=O)NCc2cc[nH]n2)NC1=O [Compound 141] | 4 (≈ 4.28 µM) | 32 (≈ 34.2 µM) | 8 (≈ 8.56 µM) | – | – | – | – | –
12 | C[C@@H]1NC(=O)[C@@H](N(C)C(=O)[C@H](CCCCN)NC(=O)c2ccc(-c3ccc(Cl)cc3)cc2)c2ccc(O)c(c2)-c2cc(ccc2O)C[C@@H](C(=O)N[C@@H](C)C(=O)C(=O)N[C@@H]2CCNC2=O)NC1=O [Compound 142] | 16 (≈ 17.1 µM) | 16 (≈ 17.1 µM) | 64 (≈ 68.3 µM) | – | – | – | – | –
13 | C[C@@H]1NC(=O)[C@@H](N(C)C(=O)[C@H](CCCCN)NC(=O)c2ccc(-c3ccc(Cl)cc3)cc2)c2ccc(O)c(c2)-c2cc(ccc2O)C[C@@H](C(=O)N[C@@H](C)/C=C/S(C)(=O)=O)NC1=O [Compound 144] | – | 32 (≈ 36.1 µM) | – | 2 (≈ 2.25 µM) | 8 (≈ 9.01 µM) | – | – | –
14 | C[C@@H]1NC(=O)[C@@H](N(C)C(=O)[C@H](CCCCN)NC(=O)c2ccc(-c3ccc(Cl)cc3)cc2)c2ccc(O)c(c2)-c2cc(ccc2O)C[C@@H](C(=O)N[C@@H](C)/C=C\S(C)(=O)=O)NC1=O [Compound 145] | – | > 64 | – | 64 (≈ 72.1 µM) | > 64 | – | – | –
15 | C[C@H](NC(=O)CCC(=O)[C@H](C)NC(=O)[C@@H]1Cc2ccc(O)c(c2)-c2cc(ccc2O)[C@H](N(C)C(=O)[C@H](CCCCN)NC(=O)c2ccc(-c3ccc(Cl)cc3)cc2)C(=O)N[C@@H](C)C(=O)N1)C(=O)O [Compound 147] | – | > 64 | – | > 64 | > 64 | – | – | –
16 | CNC(=O)CCC(=O)[C@H](C)NC(=O)[C@@H]1Cc2ccc(O)c(c2)-c2cc(ccc2O)[C@H](N(C)C(=O)[C@H](CCCCN)NC(=O)c2ccc(-c3ccc(Cl)cc3)cc2)C(=O)N[C@@H](C)C(=O)N1 [Compound 149] | 64 (≈ 71.4 µM) | 64 (≈ 71.4 µM) | > 64 | – | – | – | – | –
17 | C[C@@H]1NC(=O)[C@@H](N(C)C(=O)[C@H](CCCCN)NC(=O)c2ccc(-c3ccc(Cl)cc3)cc2)c2ccc(O)c(c2)-c2cc(ccc2O)C[C@@H](C(=O)N[C@@H](C)C(=O)C(F)(F)C(=O)O)NC1=O [Compound 152] | – | – | – | – | – | 4 (≈ 4.42 µM) | 16 (≈ 17.7 µM) | 10 (≈ 11 µM)
18 | C[C@@H]1NC(=O)[C@@H](N(C)C(=O)[C@H](CCCCN)NC(=O)c2ccc(-c3ccc(Cl)cc3)cc2)c2ccc(O)c(c2)-c2cc(ccc2O)C[C@@H](C(=O)N[C@@H](C)C(=O)N(C)[C@@H](CC(=O)O)C(N)=O)NC1=O [Compound 158] | – | 64 (≈ 67 µM) | – | 8 (≈ 8.37 µM) | 23 (≈ 24.1 µM) | – | – | –
19 | C[C@@H]1NC(=O)[C@@H](N(C)C(=O)[C@H](CCCCN)NC(=O)c2ccc(-c3ccc(Cl)cc3)cc2)c2ccc(O)c(c2)-c2cc(ccc2O)C[C@@H](C(=O)N[C@@H](C)C(=O)N(C)[C@@H](CCC(=O)O)C(N)=O)NC1=O [Compound 159] | 8 (≈ 8.25 µM) | 32 (≈ 33 µM) | 23 (≈ 23.7 µM) | – | – | – | – | –
20 | C[C@@H]1NC(=O)[C@@H](N(C)C(=O)[C@H](CCCCN)NC(=O)c2ccc(-c3ccc(Cl)cc3)cc2)c2ccc(O)c(c2)-c2cc(ccc2O)C[C@@H](C(=O)N[C@@H](C)C(=O)N2CCCC23CCNC3=O)NC1=O (stereo partly drawn) [Compound 160] | > 64 | 64 (≈ 67.4 µM) | > 64 | – | – | – | – | –
21 | C[C@@H]1NC(=O)[C@@H](N(C)C(=O)[C@H](CCCCN)NC(=O)c2ccc(-c3ccc(Cl)cc3)cc2)c2ccc(O)c(c2)-c2cc(ccc2O)C[C@@H](C(=O)N[C@@H](C)C(=O)N2CCCC23CCNC3=O)NC1=O (stereo partly drawn) [Compound 161] | – | – | – | – | – | 32 (≈ 33.7 µM) | 64 (≈ 67.4 µM) | 64 (≈ 67.4 µM)
22 | C[C@H](NC(=O)[C@@H]1Cc2ccc(O)c(c2)-c2cc(ccc2O)[C@H](N(C)C(=O)[C@H](CCCCN)NC(=O)c2ccc(-c3ccc(Cl)cc3)cc2)C(=O)N[C@@H](C)C(=O)N1)C(=O)CNS(C)(=O)=O [Compound 162] | – | 32 (≈ 34.8 µM) | – | 2 (≈ 2.18 µM) | 8 (≈ 8.71 µM) | – | – | –
23 | CCCCCCCCCCNCCS(=O)(=O)N[C@@H](CCCCN)C(=O)N(C)[C@@H]1C(=O)N[C@@H](C)C(=O)N[C@H](C(=O)N[C@@H](C)C(C)=O)Cc2ccc(O)c(c2)-c2cc1ccc2O [Compound 163] | 0.11 (≈ 0.128 µM) | 16 (≈ 18.6 µM) | 0.13 (≈ 0.151 µM) | – | – | – | – | –
